# Like-named read-outs stand apart in the source and are kept apart here.
# Assays:
# [1] = in vivo; cited from earlier work
# [2] = orally administered; Lyons et al 2000; cited from earlier work
# mice = conditions: cited from earlier work
# [3] = Bioavailability, nasal versus oral administration; conditions: administered via the nasal route, compared with oral
# ALS patients [4] = assay: Case reports of single ALS patients treated with glycopeptide (Examples 1-6)
# ALS patients [5] = assay: Twenty five ALS patients given aqueous intranasal spray of GMDP-A (Example 7); type: in vivo, human; conditions: 0.31 mg GMDP-A aqueous intranasal spray
# [6] = Example 2: after 5 months of GMDP then GMDP-A
# [7] = Example 5: GMDP-A intranasal spray 3 months
compound,measurement,setting,value
"CC(=O)NC1C(OC2C(CO)OC(O)C(NC(C)=O)C2OC(C)C(=O)NC(C)C(=O)NC(CCC(=O)O)C(N)=O)OC(CO)C(O)C1O [GMDP, N-acetyl-D-glucosaminyl-(β1-4)-N-acetylmuramyl-L-alanylD-isoglutamine]",pyrogenicity,[1],sufficiently low
same,bioavailability,[2],low bioavailability
same,LD50,mice; acute toxicity in mice,7000 mg/kg
same,bioavailability,[3],improved
same,voluntary motor function,"ALS patients [4]; Example 1: 3 months, semi-weekly aqueous oral spray of GMDP",Continued voluntary motor improvement
same,pulsox after removal of the oxygen,"ALS patients [4]; Example 1: 14 hours after first 6 mg GMDP dose, ambient air (82% before therapy), no respiratory distress",99%
same,speech,"ALS patients [4]; Example 1: after fourth day of 6 mg GMDP, first time in 18 months",began to speak soft-spoken words
same,voluntary movement,"ALS patients [4]; Example 1: day three, 6 mg GMDP aqueous oral spray",able to move all fingers on both hands excluding their thumbs
same,time until small fingers responded to voluntary challenge,"ALS patients [4]; Example 1: day two, additional 6 mg GMDP aqueous oral spray",≤ 2 h
same,pulsox,"ALS patients [4]; Example 1: person, final stage bulbar onset ALS, on pure oxygen (94% before), 6 mg GMDP aqueous oral spray plus 400 mg luteolin/400 mg rutin four times a day, within 24 hours",99%-100%
same,time of peak improvement of voice and energy,ALS patients [4]; Example 2: 10 mg GMDP aqueous oral spray,one
same,ALS progression,ALS patients [4]; [6],no progression
same,time to dramatic improvement of voice and energy,"ALS patients [4]; Example 2: person, bulbar onset ALS, on 2000 mg luteolin and 2000 mg rutin per day, 10 mg GMDP aqueous oral spray",≤ 40 min
same,time to substantial improvement in leg strength and fasciculations,"ALS patients [4]; Example 3: 1.51 mg GMDP intranasally per day, on luteolin/rutin",≤ 24 h
same,side effect,ALS patients [4]; Example 3: GMDP taken more frequently than every 96 hours,significant joint and muscle pain
same,walking distance without AFO,ALS patients [4]; Example 3: after 2 weeks of daily GMDP (before: not over 15 meters with AFO),up to 200 meters
"CCCCCCCCCCCCCCCCCC(=O)NCCCC[C@H](NC(=O)CC[C@@H](NC(=O)[C@H](C)NC(=O)[C@@H](C)O[C@H]1[C@H](O)[C@@H](CO)OC(O)[C@@H]1NC(C)=O)C(N)=O)C(=O)O (stereo partly drawn) [muroctasin, reference compound]",LD50,mice; mice,625 mg/kg
N-acetyl-D-glucosaminyl-(β1-4)-N-acetylmuramyl-L-alanylD-glutamic acid [GMDP-A],time to reported symptom reduction and improvement,ALS patients [5],24 to 96 h
same,"patients reporting dramatic reductions in symptoms (fasciculations, muscle weakness, fatigue, choking)","ALS patients [5]; of twenty five ALS patients, 1-4 months",Twenty one
same,bioavailability,[3],improved
same,ALS progression,ALS patients [4]; [6],no progression
same,fasciculations,ALS patients [4]; Example 3: 0.93 mg GMDP-A every 96 hours,major reductions
same,ALS progression and symptoms,"ALS patients [4]; Example 3: 1.42 mg GMDP-A every 96 hours, after 4 months of therapy",abated all progression and symptoms of ALS
same,arm function,ALS patients [4]; Example 4: 0.942 mg intranasal spray daily,ability to comb their hair and feed themself was restored
same,reduction in fasciculations,"ALS patients [4]; Example 4: 0.942 mg intranasal spray daily, within 2 days",90%
same,ALS progression,ALS patients [4]; Example 4: for 4 months,No progression
same,disease progression,ALS patients [4]; [7],no progression of disease
same,mobility,ALS patients [4]; [7],ability to stand with support and walk with a walker
same,reduction in fasciculations,"ALS patients [4]; Example 5: GMDP-A intranasal spray 3 months, 1.24/0.93/0.62/0.31/0.31 mg days one to five, 6 day cycle",100%
same,ALS symptoms,"ALS patients [4]; Example 6: GMDP-A intranasal spray 1.42 mg every 96 hours, 3 months",cessation of their ALS symptoms
